Measured values published in BindingDB's records for doi:10.1016/0960-894X(95)00078-8 (1995).
Peptide text beside a SMILES is read from it.

Columns and labels:
[1] = In vitro ability to displace [125 I]CGRP from Calcitonin gene-related peptide type receptor at 4 degrees Centigrade in rabbit lung
[2] = In vitro ability to displace [125 I]CGRP from Calcitonin gene-related peptide type receptor at 4 degrees Celsius in rabbit porcine c+i

Row | IC50 [1] [nM] | IC50 [2] [nM] | Compound
1 | 185 | 995 | CC(C)C[C@H](NC(=O)COCCOCCNC(=O)[C@@H](NC(=O)[C@H](CS)NC(=O)[C@@H](NC(=O)[C@H](C)NC(=O)[C@@H](NC(=O)[C@H](CC(=O)O)NC(=O)[C@H](CS)NC(=O)[C@H](C)N)[C@@H](C)O)[C@@H](C)O)C(C)C)C(=O)N[C@@H](CO)C(=O)N[C@@H](CCCNC(=N)N)C(=O)N[C@@H](CO)C(=O)NCC(=O)NCC(=O)N[C@H](C(=O)N[C@H](C(=O)N[C@@H](CCCCN)C(=O)N[C@@H](CC(N)=O)C(=O)N[C@@H](CC(N)=O)C(=O)N[C@@H](Cc1ccccc1)C(=O)N[C@H](C(=O)N1CCC[C@H]1C(=O)N[C@H](C(=O)N[C@@H](CC(N)=O)C(=O)N[C@H](C(=O)NCC(=O)N[C@@H](CO)C(=O)N[C@@H](CCCCN)C(=O)N[C@@H](C)C(=O)N[C@@H](Cc1ccccc1)C(=O)O)C(C)C)[C@@H](C)O)C(C)C)C(C)C)C(C)C
2 | 4 | 14 | CC(C)[C@H](NC(=O)CNC(=O)CNC(=O)[C@H](CO)NC(=O)[C@H](CCCN=C(N)N)NC(=O)[C@@H](NC(=O)[C@H](CCCN=C(N)N)NC(=O)[C@@H](NC(=O)[C@H](Cc1c[nH]cn1)NC(=O)[C@@H](NC(=O)[C@H](CS)NC(=O)[C@@H](NC(=O)[C@H](C)NC(=O)[C@@H](NC(=O)[C@H](CC(=O)O)NC(=O)[C@H](CS)NC(=O)[C@H](C)N)[C@@H](C)O)[C@@H](C)O)C(C)C)C(C)C)C(C)C)C(=O)N[C@H](C(=O)N[C@@H](CCCCN)C(=O)N[C@@H](CC(N)=O)C(=O)N[C@@H](CC(N)=O)C(=O)N[C@@H](Cc1ccccc1)C(=O)N[C@H](C(=O)N1CCC[C@H]1C(=O)N[C@H](C(=O)N[C@@H](CC(N)=O)C(=O)N[C@H](C(=O)NCC(=O)N[C@@H](CO)C(=O)N[C@@H](CCCCN)C(=O)N[C@@H](C)C(=O)N[C@@H](Cc1ccccc1)C(N)=O)C(C)C)[C@@H](C)O)C(C)C)C(C)C (H-ACDTATCVHVRVRSGGVVKNNFVPTNVGSKAF-NH2)
